Laboratory results: US10894817B2, “Fatty acid modified urocortin-2 analogs for the treatment of diabetes and chronic kidney disease” (priority 2016, dated 2021)
Several values for one entry are separate records, joined by “and”; a condition that tells them apart may be missing. Equal values may be shown once. Starred links: 1 amine or outer side, 2 acyl side, 3 side chain; linkers in the order of their positions; H or OH if unused. Non-standard residues stand in square brackets, D forms with d. Residues, ends and D or L forms follow the SMILES beside them. Groups on a side chain read outwards from the residue. *: point of attachment. C18 diacid = O=C(O)CCCCCCCCCCCCCCCCC(=O)*; γGlu = O=C(O)[C@H](CCC(=O)[*:2])N[*:1]; NMeI = CC[C@H](C)[C@H](NC)C(=O)O; AEEA = NCCOCCOCC(=O)O

How the values were obtained:
human CRHR1 = target: T1, human CRHR1 (Homo sapiens, UniProt P34998); assay: human CRHR1 cell-based cAMP assay (Y79 cells); details: Y79 cells with endogenous human CRHR1, mean ± SEM of runs, read-out: hCRHR1 Average EC50
T1 construct: which expresses endogenous human CRHR1; host or cells: Y79 human retinoblastoma cells
T1 sequence (P34998 24-415): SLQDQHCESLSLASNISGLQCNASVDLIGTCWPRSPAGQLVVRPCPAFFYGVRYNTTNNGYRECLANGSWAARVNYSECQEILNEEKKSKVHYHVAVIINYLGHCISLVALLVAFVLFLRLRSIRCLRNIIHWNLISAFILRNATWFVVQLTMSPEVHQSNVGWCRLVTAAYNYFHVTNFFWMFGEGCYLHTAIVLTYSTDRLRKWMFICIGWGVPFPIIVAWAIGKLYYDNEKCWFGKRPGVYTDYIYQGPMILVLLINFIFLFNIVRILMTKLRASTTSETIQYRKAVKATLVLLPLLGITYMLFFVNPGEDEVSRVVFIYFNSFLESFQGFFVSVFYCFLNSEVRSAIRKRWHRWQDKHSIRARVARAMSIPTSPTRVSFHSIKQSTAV
Protocol: CRHR agonistic activity is measured in a cell-based cAMP assay. Serial dilutions of the test peptides are made in assay buffer containing Hank's Balanced Salt Solution (HBSS, without phenol red) supplemented with 20 mM HEPES and 0.05% lactalbumin enzymatic hydrolysate (LAH) (“assay buffer”). The highest concentration that is used starts from 1 μM in the human CRHR2b, whereas 100 μM starting concentration is used in the human CRHR1 assay. A one to three dilution of the test peptides is used in both assays.
The human Retinoblastoma cell line Y79 (ATCC #HTB-18), which expresses endogenous human CRHR1, is used in the human CRHR1 assay. The cells are grown in RPMI 1640 (Hyclone, #SH30255) containing 20% fetal bovine serum and 10 mM HEPES, in suspension culture. Cells are centrifuged to remove the culture media and washed once in HBSS supplemented with 20 mM HEPES. The cells are resuspended in the assay buffer and 20,000 cells are used per treatment in the human CRHR1 assay.
The cells are dispensed into Costar 96-well black polystyrene half area EIA/RIA plates (Corning Incorporated, Corning, N.Y.) followed by the addition of the diluted peptides, each at a volume of 20 μL. The agonist induced cAMP levels are detected using a HTRF cAMP Dynamic 2 kit (CisBio, Bedford, Mass.). After incubation at 37° C. for 30 min, the assay is stopped by cell lysis via the addition of 20 μL of d2-labeled cAMP and followed by 20 μL of cryptate-labeled anti-cAMP antibody, as described by the manufacturer. Cellular cAMP (as a result of agonist stimulation) competes with the d2-labeled cAMP for binding to the antibody. HTRF detection is performed on an Envision plate reader (Perkin Elmer Life and Analytical Sciences, Waltham, Mass.) by measuring ratiometric emission at 620 and 665 nm after excitation at 320 nm.
The data are converted to picomoles of cAMP using a standard curve obtained from the same assay performed with varying concentrations of unlabeled cAMP. Percent of the maximum activation of the cells is calculated using converted picomole cAMP data by comparing to the amount of cAMP produced by 1 μM human UCN2 for the human CRHR2b or 1 μM human UCN1 for the human CRHR1 assay. The data are analyzed using a Curve Fitting Tool to calculate ED50. Numeric values shown below in Table 1 represent the mean of multiple runs (number of runs shown in parentheses) following the mean value±SEM.

[1] = Pharmacokinetics, single subcutaneous dose, rats; details: for half-life: T1/2, male Sprague Dawley rats
Protocol: (§1) Plasma concentrations of compounds were determined by LC/MS methods. Each method measured the intact compound; peptide plus linked time extension. For each assay, the compound and an analog, used as an internal standard (IS), were extracted from 100% mouse, rat or monkey plasma (25 μl) using acetonitrile. Two distinct layers were formed upon centrifugation with the compound and the IS located in the supernatant layer. An aliquot of the supernatant (80 μl) was transferred to a Thermo Protein Precipitation Plate with water (150 μl) and formic acid (25 μl) followed by mixing. A final 31% acetonitrile in 10% formic acid sample (10 μl) was loaded onto a Supelco Analytical Discovery BIO Wide Pore C5-3 column (5 cm×1 mm, 3 μm). The column effluent was directed into a Thermo Q-Exactive mass spectrometer for detection and quantitation.
Male Sprague Dawley rats were administered a single subcutaneous dose (50 or 150 nmol/kg) of a compound described herein in 20 mM Tris-HCl Tris Buffer (pH 8) at a volume of 0.26 or 0.77 mL/kg.

[2] = Pharmacokinetics, single subcutaneous dose, mice; details: male, CD-1, mouse, plasma, sc, 350 nmol/kg
Protocol: as §1
Male CD-1 mice were administered a single subcutaneous dose (350, 386 or 388 nmol/kg) of a compound described herein in 20 mM Tris-HCl Tris Buffer (pH 7 or 8) at a volume of 0.05 or 0.06 mL/animal. Blood was collected at 6, 12, 24, 48, 72, 96, 120 and 168 hours postdose for pharmacokinetic characterization (101).

[3] = Pharmacokinetics, single subcutaneous dose, monkeys; details: for half-life: T1/2, male Cynomolgus monkeys
[4] = male Sprague Dawley rats, single 50 nmol/kg s.c., individual animal
[5] = male Sprague Dawley rats, single 150 nmol/kg s.c., individual animal
[6] = male, Sprague Dawley, rat, plasma, sc, 50 nmol/kg
[7] = male, Sprague Dawley, rat, plasma, sc, 150 nmol/kg
[8] = male Cynomolgus monkeys, single 50 nmol/kg s.c., individual animal
[9] = male, cynomolgus monkey, plasma, sc, 50 nmol/kg

SMILES: CC[C@H](C)[C@H](NC)C(=O)N[C@H](C(=O)N[C@@H](CC(C)C)C(=O)N[C@@H](CO)C(=O)N[C@@H](CC(C)C)C(=O)N[C@@H](CC(=O)O)C(=O)N[C@H](C(=O)N1CCC[C@H]1C(=O)N[C@H](C(=O)NCC(=O)N[C@@H](CC(C)C)C(=O)N[C@@H](CC(C)C)C(=O)N[C@@H](CCC(N)=O)C(=O)N[C@H](C(=O)N[C@@H](CC(C)C)C(=O)N[C@@H](CC(C)C)C(=O)N[C@@H](CCC(=O)O)C(=O)N[C@@H](CCC(N)=O)C(=O)N[C@@H](CCC(=O)O)C(=O)N[C@@H](CCCCN)C(=O)N[C@@H](CCC(N)=O)C(=O)N[C@@H](CCC(=O)O)C(=O)N[C@@H](CCCCN)C(=O)N[C@@H](CCC(=O)O)C(=O)N[C@@H](CCCCN)C(=O)N[C@@H](CCC(N)=O)C(=O)N[C@@H](CCC(N)=O)C(=O)N[C@@H](C)C(=O)N[C@@H](CCCCNC(=O)COCCOCCNC(=O)COCCOCCNC(=O)CC[C@H](NC(=O)CC[C@H](NC(=O)CCCCCCCCCCCCCCCCC(=O)O)C(=O)O)C(=O)O)C(=O)N[C@H](C(=O)N[C@@H](CC(N)=O)C(=O)N[C@@H](C)C(=O)N[C@@H](CCC(N)=O)C(=O)N[C@H](C(=O)N[C@@H](CC(C)C)C(=O)N[C@@H](C)C(=O)N[C@@H](CCC(N)=O)C(=O)N[C@H](C(N)=O)C(C)C)[C@@H](C)CC)[C@@H](C)O)[C@@H](C)CC)[C@@H](C)CC)C(C)C)C(C)C [Example 3] (H-[NMeI]VLSLDVPIGLLQILLEQEKQEKEKQQAK([AEEA-AEEA-γGlu-γGlu-C18 diacid])TNAQILAQV-NH2)
- EC50 (human CRHR1): > 100 µM
- CL/F [1, 4]: 0.125 mL/min/kg and 0.122 mL/min/kg
- Cmax [1, 4]: 188 nM and 160 nM and 141 nM
- T1/2 [1, 4]: 14 h and 17 h
- CL/F [1, 5]: 0.103 mL/min/kg and 0.107 mL/min/kg
- Cmax [1, 5]: 531 nM and 496 nM and 470 nM
- AUC(0-inf) [1, 6]: 7.17 µM·h
- Cmax [1, 6]: 163 nM
- CL/F ([1]; male, Sprague Dawley, rat, plasma, sc, 50 nmol/kg, CL/F, male Sprague Dawley rats, single 50 nmol/kg s.c., Mean): 0.117 mL/min/kg
- CL/F ([1]; male, Sprague Dawley, rat, plasma, sc, 50 nmol/kg, CL/F, male Sprague Dawley rats, single 50 nmol/kg s.c., individual animal): 0.103 mL/min/kg
- half-life ([1]; male, Sprague Dawley, rat, plasma, sc, 50 nmol/kg, single 50 nmol/kg s.c., Mean): 16 h
- half-life ([1]; male, Sprague Dawley, rat, plasma, sc, 50 nmol/kg, single 50 nmol/kg s.c., individual animal): 16 h
- Tmax ([1]; male, Sprague Dawley, rat, plasma, sc, 50 nmol/kg, male Sprague Dawley rats, single 50 nmol/kg s.c., Mean): 20 h
- Tmax ([1]; male, Sprague Dawley, rat, plasma, sc, 50 nmol/kg, male Sprague Dawley rats, single 50 nmol/kg s.c., individual animal): 12 h
- AUC(0-inf) [1, 7]: 24.4 µM·h
- Cmax [1, 7]: 499 nM
- CL/F ([1]; male, Sprague Dawley, rat, plasma, sc, 150 nmol/kg, CL/F, male Sprague Dawley rats, single 150 nmol/kg s.c., Mean): 0.1 mL/min/kg
- CL/F ([1]; male, Sprague Dawley, rat, plasma, sc, 150 nmol/kg, CL/F, male Sprague Dawley rats, single 150 nmol/kg s.c., individual animal): 0.1 mL/min/kg
- half-life ([1]; male, Sprague Dawley, rat, plasma, sc, 150 nmol/kg, single 150 nmol/kg s.c., Mean): 16 h
- half-life ([1]; male, Sprague Dawley, rat, plasma, sc, 150 nmol/kg, single 150 nmol/kg s.c., individual animal): 16 h
- Tmax ([1]; male, Sprague Dawley, rat, plasma, sc, 150 nmol/kg, male Sprague Dawley rats, single 150 nmol/kg s.c., Mean): 24 h
- Tmax ([1]; male, Sprague Dawley, rat, plasma, sc, 150 nmol/kg, male Sprague Dawley rats, single 150 nmol/kg s.c., individual animal): 24 h
- AUC(0-inf) [2]: 35.5 µM·h
- CL/F [2]: 0.165 mL/min/kg
- Cmax [2]: 1340 nM
- Tmax [2]: 12 h
- half-life [2]: 14 h
- AUC(0-inf) [3, 8]: 69.88 µM·h and 58.414 µM·h
- CL/F [3, 8]: 0.0143 mL/min/kg
- Cmax [3, 8]: 441 nM and 432 nM
- T1/2 [3, 8]: 70 h
- AUC(0-inf) [3, 9]: 64.1 µM·h
- Cmax [3, 9]: 437 nM
- CL/F ([3]; male, cynomolgus monkey, plasma, sc, 50 nmol/kg, CL/F, male Cynomolgus monkeys, single 50 nmol/kg s.c., Mean): 0.0132 mL/min/kg
- CL/F ([3]; male, cynomolgus monkey, plasma, sc, 50 nmol/kg, CL/F, male Cynomolgus monkeys, single 50 nmol/kg s.c., individual animal): 0.012 mL/min/kg
- half-life ([3]; male, cynomolgus monkey, plasma, sc, 50 nmol/kg, single 50 nmol/kg s.c., Mean): 85 h
- half-life ([3]; male, cynomolgus monkey, plasma, sc, 50 nmol/kg, single 50 nmol/kg s.c., individual animal): 101 h
- Tmax ([3]; male, cynomolgus monkey, plasma, sc, 50 nmol/kg, male Cynomolgus monkeys, single 50 nmol/kg s.c., Mean): 36 h
- Tmax ([3]; male, cynomolgus monkey, plasma, sc, 50 nmol/kg, male Cynomolgus monkeys, single 50 nmol/kg s.c., individual animal): 48 h
